Assay results taken from PMC3686551 (Tuberculosis (Edinburgh, Scotland), 2013).

Target: Mtb FtsZ (Mycobacterium tuberculosis, UniProt P9WN95)
Experiment: FtsZ polymerization inhibition
Assay type: biochemical

Chain of Mtb FtsZ (P9WN95 whole entry): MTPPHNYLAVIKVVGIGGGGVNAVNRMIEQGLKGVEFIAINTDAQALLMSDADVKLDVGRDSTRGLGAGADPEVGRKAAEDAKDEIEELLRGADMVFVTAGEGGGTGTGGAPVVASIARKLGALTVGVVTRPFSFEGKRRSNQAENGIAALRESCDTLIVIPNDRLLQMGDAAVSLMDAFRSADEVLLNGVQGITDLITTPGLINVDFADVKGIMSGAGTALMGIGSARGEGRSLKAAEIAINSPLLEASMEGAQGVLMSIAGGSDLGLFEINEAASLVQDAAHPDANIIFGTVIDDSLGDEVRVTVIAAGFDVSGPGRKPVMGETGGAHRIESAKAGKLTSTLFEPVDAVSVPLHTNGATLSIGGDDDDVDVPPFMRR

## CCCOc1ccc(N(C)c2cc(C)nc3ccc(Cl)cc23)cc1 [compound 3]
  IC50: > 100 µM
